Where two headings read alike, the source gives them in different places.
Experiments:
[1] = target: T1, TPτ thromboxan A2 receptors (Rattus norvegicus, UniProt P34978); test: Rat aorta contraction test (relaxation of aorta precontracted by U-46619); details: tonus induced by U-46619 (0.03 μM); read-out: IC 50: concentration reducing by 50% the Rat Aorta muscular tonus
T1 construct: Two tests on smooth musculature have allowed to confirm the antagonist potency on the TPτ thromboxan A2 receptors; from tissue; host or cells: isolated rat aorta; isolated rat stomach fundus
T1 sequence (P34978 1-341): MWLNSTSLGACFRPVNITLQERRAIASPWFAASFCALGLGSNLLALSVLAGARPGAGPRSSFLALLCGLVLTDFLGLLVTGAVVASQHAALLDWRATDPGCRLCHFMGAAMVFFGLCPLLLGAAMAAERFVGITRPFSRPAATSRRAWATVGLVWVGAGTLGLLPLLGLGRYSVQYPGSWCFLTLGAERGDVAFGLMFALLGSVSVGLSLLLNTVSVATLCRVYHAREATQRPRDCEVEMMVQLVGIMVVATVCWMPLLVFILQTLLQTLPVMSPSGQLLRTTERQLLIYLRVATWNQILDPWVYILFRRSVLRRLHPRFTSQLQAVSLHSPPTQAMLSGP
From the text: (§1) Two tests on smooth musculature have allowed to confirm the antagonist potency on the TPτ thromboxan A2 receptors. Indeed, the capacity of the selected compounds during the binding to prevent the contraction of the rat fundus induced by I′U-46619 and to relax the rat aorta precontracted by this same stable agonist of the TXA2 have been evaluated;
Test desribed according to:
de Tullio P., Pirotte B., Lebrun P., Fontaine J., Dupont L., Antoine M. H., Ouedraogo R., Khelili S., Maggetto C., Masereel B., Diouf O., Podona T., Delarge J., 3-and -4-substituted 4H-pyrido[4,3-e]-1,2,4-thiadiazine 1,1-dioxides as potassium channels openers: synthesis pharmacological evaluation, and structure-activity relationships.—J. Med. Chem., 1996, 39, 937-948.

[2] = target: T2, thromboxane A2 receptors (TPα) of human platelets (Homo sapiens, UniProt P21731); test: Binding test: displacement of [3H]SQ-29.548 from human platelet thromboxane A2 receptors; details: for inhibition at 1 µM: read-out: Affinity: percent of [3H]SQ-29.548 specifically substituted by the examined compound, compound 10^-6 M; for inhibition at 0.1 µM: read-out: Affinity: percent of [3H]SQ-29.548 specifically substituted by the examined compound, compound 10^-7 M
T2 construct: endogenous in cells; host or cells: human platelets
T2 sequence (P21731 1-343): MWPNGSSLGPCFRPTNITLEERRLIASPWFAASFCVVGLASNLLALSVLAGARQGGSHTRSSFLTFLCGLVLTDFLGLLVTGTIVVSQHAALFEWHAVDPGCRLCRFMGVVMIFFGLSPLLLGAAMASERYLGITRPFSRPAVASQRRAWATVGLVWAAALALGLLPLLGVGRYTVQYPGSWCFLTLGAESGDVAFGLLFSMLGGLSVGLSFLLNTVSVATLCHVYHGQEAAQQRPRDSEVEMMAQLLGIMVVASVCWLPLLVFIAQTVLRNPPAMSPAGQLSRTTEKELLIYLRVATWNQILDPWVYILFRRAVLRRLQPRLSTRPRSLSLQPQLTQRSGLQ
From the text: To operate a first selection, the capacity of these compounds to displace in a specific way a tritium ligand, the [^3H]
Cozzi P., Giordani A., Menichincheri M., Pillan A., Pinciroli V., Rossi A., Tonani R., Volpi D., Tamburin M., Ferrario R., Fusar D., Salvati P.,—Agents combining thromboxane receptor antagonism with thromboxane synthase inhibition:[[[2-(1H-imidazol-1-yl)ethylidene]amino]oxy]alkanoic acids.—J. Med. Chem., 1994, 37, 3588-3604.

[3] = tested on: Human Platelets aggregation; test: Human platelet aggregation test induced by arachidonic acid or U-46619; assay type: cell-based
From the text: The TXA2 antagonist potency of the selected compounds has been evaluated by a platelet aggregation test induced by the U-46619 (stable agonist of the thromboxan A2) or by the arachidonic acid.
Test described according to:
Born G.V.R., Cross M. J.,—The aggregation of blood platelets.—J. Physiol., 1963, 168, 178-195.
Tsuyoshi T., Masayuki Y., Shuichi W., Kazuhiro K., Takashi Y.,—Designe, synthesis, and pharmacology of 3-substituted sodium azulene—1 sulfonates and related compounds: Non-prostaboid thromboxane A2 receptor antagonists.—J. Med. Chem., 1993, 36, 791-800.

[4] = target: T1, TPτ thromboxan A2 receptors; test: Test for preventing the rat fundus contraction induced by U-46619; details: contraction caused by 5 μg of U-46619; read-out: IC 50: concentration reducing of 50% of maximum contraction amplitude of rat fundus
From the text: as §1
Test description according to:
Harris N., Greenberg R., Phillips M. B., Michel I. M., Goldenberg H. J., Haslanger M. F., Steinbacher T.E.,—Effects of SQ-27,427, a thromboxane A2 receptor antagonist, in the human platelet and isolated smooth muscle.—Eur. J. Pharmacol., 1984, 103, 9-18.

[5] = Platelet, aggregation induced by 30 nM of U-46619, read-out: IC 50 platelet aggregation, U-46.619
[6] = Platelet, aggregation induced by arachidonic acid, read-out: IC 50 platelet aggregation, ARACHIDONIC ACID

Compound | IC50 [1] [nM] | IC50 [2] [nM] | inhibition at 1 µM [2] [%] | inhibition at 0.1 µM [2] [%] | IC50 [3, 5] [nM] | IC50 [3, 6] [nM] | IC50 [4] [nM] | IC50 ([3]; aggregation induced by 30 nM of U-46619, read-out: IC 50 platelet aggregation, U-46.619) [nM] | IC50 ([3]; aggregation induced by arachidonic acid, read-out: IC 50 platelet aggregation, ARACHIDONIC ACID) [nM] | Affinity: percent of [3H]SQ-29.548 specifically substituted by the examined compound, 10^-6M ([2]; compound 10^-6 M) [%] | Affinity: percent of [3H]SQ-29.548 specifically substituted by the examined compound, 10^-7M ([2]; compound 10^-7 M) [%]
O=C(NC1CCCCC1)NS(=O)(=O)c1cc([N+](=O)[O-])ccc1NC1CCCCC1 [Compound 17] | 1.38 | 22.7 | 100 | 88 |  |  |  |  |  |  | 
Cc1cccc(Nc2ccc([N+](=O)[O-])cc2S(=O)(=O)NC(=NC#N)N2CCCCCC2)c1 [Compound 18, N-cyano-N′-[(2-metatoluylamin-5-nitrobenzene)sulfonyl]homopiperidinoamidine] | 1.21 | 24.2 | 100 | 88.9 | 480 | 360 | 70 |  |  |  | 
O=C(NC1CCCCC1)NS(=O)(=O)c1cc([N+](=O)[O-])ccc1NC1CCCCCC1 [Compound 22] | 37.6 | 41.7 | 100 | 84.1 |  |  |  |  |  |  | 
CC(C)(C)NC(=O)NS(=O)(=O)c1cc([N+](=O)[O-])ccc1NC1CCCCCC1 [Compound 25] | 19.7 | 10.5 | 100 | 95.2 |  |  |  |  |  |  | 
CC(C)(C)NC(=O)NS(=O)(=O)c1cc([N+](=O)[O-])ccc1NC1CCCCC1 [Compound 29, N-[(2-cyclohexylamin-5-nitrobenzene)sulfonyl]N′-tert-butyl urea] | 20.6 | 7.8 | 97.4 | 95.4 |  |  |  |  |  |  | 
O=[N+]([O-])c1ccc(NC2CCCCCC2)c(S(=O)(=O)NC(=S)NC2CCCCC2)c1 [Compound 40, N-[(2-cycloheptylamin-5-nitrobenzene)sulfonyl]N′-cyclohexyl thiourea] | 17.7 | 26.9 | 94.4 | 63 |  |  |  |  |  |  | 
CCCCCNC(=O)NS(=O)(=O)c1cc([N+](=O)[O-])ccc1Nc1cccc(C)c1 [Compound 96] |  | 43.9 | 92.3 |  |  |  |  |  |  |  | 
CCCCCNC(=O)NS(=O)(=O)c1cc(C#N)ccc1NC1CCCCC1 [Compound 97] |  | 98.5 | 89.7 |  |  |  |  |  |  |  | 
O=C(O)CCC/C=C\CC1C2CCC(O2)C1CNNC(=O)Nc1ccccc1 (stereo not drawn) [SQ-29.548, acid [15-[1-alpha,2-beta (5Z),3-beta, 4-alpha]-7-[3-[[2-(phenylamino)carbonyl]hydrazin]methyl]-7-oxabicyclo[2.2.1]hept-2-yl]-5-heptenoic, reference compound] | 31.8 |  |  |  |  |  | 180 | 34 | 35 | 100 | 72.0
O=C(O)COc1ccc(CCNS(=O)(=O)c2ccccc2)cc1 [SULOTROBAN, sulotroban, reference compound] | 1600 |  | 55.6 | 16.5 | 10500 | 11700 | 830 |  |  |  | 

— patent publication US6818765B1, “Benzene-sulphonamide derivatives and their uses” (Universite de Liege, priority 1999, dated 2004)
